According to PubChem BioAssay (NCI):
Values joined by “and” are separate entries in the source; they are usually repeats but may differ in a detail not shown here. Equal values may be shown once.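 Assay format: 96-well plates, 48-hour exposure. At the GI50, growth is halved. The concentration for full growth arrest is given as TGI.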

Tests used:
Test in all cases: growth of human tumour cells (NCI), 48 h
UACC-62 melanoma = test system: UACC-62 melanoma
NCI-H226 lung = test system: NCI-H226 lung
SK-MEL-28 melanoma = test system: SK-MEL-28 melanoma
SR leukemia = test system: SR leukemia
LOX IMVI melanoma = test system: LOX IMVI melanoma
IGROV1 ovarian = test system: IGROV1 ovarian
SF-295 CNS = test system: SF-295 CNS
OVCAR-8 ovarian = test system: OVCAR-8 ovarian
HCT-116 colon = test system: HCT-116 colon
K-562 leukemia = test system: K-562 leukemia

CN(C)c1ccc(C(=C2C=CC(=[N+](C)C)C=C2)c2ccccc2Cl)cc1
GI50 (UACC-62 melanoma): 0.323 µM | TGI (UACC-62 melanoma): 1.43 µM | GI50 (NCI-H226 lung): 0.43 µM | TGI (NCI-H226 lung): 2 µM | GI50 (SK-MEL-28 melanoma): 0.4 µM | TGI (SK-MEL-28 melanoma): 1.44 µM | GI50 (SR leukemia): 0.235 µM | TGI (SR leukemia): 0.898 µM | GI50 (LOX IMVI melanoma): 0.224 µM | TGI (LOX IMVI melanoma): 0.836 µM | GI50 (IGROV1 ovarian): 0.365 µM | TGI (IGROV1 ovarian): 1.34 µM | GI50 (SF-295 CNS): 0.0894 µM | TGI (SF-295 CNS): 0.401 µM | GI50 (OVCAR-8 ovarian): 0.306 µM | TGI (OVCAR-8 ovarian): 1.66 µM | GI50 (HCT-116 colon): 0.155 µM | TGI (HCT-116 colon): 0.605 µM | GI50 (K-562 leukemia): 0.244 µM | TGI (K-562 leukemia): 3.79 µM

CCN(CC)CCCNc1[nH]ncc2c(C)c3nc4ccccc4c3cc12
TGI (UACC-62 melanoma): 1.96 µM and 2.08 µM | GI50 (NCI-H226 lung): 0.566 µM | TGI (NCI-H226 lung): 2.5 µM and 2.09 µM | GI50 (SK-MEL-28 melanoma): 2.83 µM | TGI (SK-MEL-28 melanoma): 13.9 µM and 4.06 µM | TGI (SR leukemia): 1.12 µM | GI50 (LOX IMVI melanoma): 0.328 µM | TGI (LOX IMVI melanoma): 1.58 µM and 1.18 µM | GI50 (IGROV1 ovarian): 1.08 µM | TGI (IGROV1 ovarian): 8.16 µM and 6.88 µM | GI50 (SF-295 CNS): 1.3 µM | TGI (SF-295 CNS): 5.27 µM and 11.8 µM | GI50 (OVCAR-8 ovarian): 0.926 µM | TGI (OVCAR-8 ovarian): 4.85 µM and 4.58 µM | GI50 (HCT-116 colon): 0.412 µM and 0.421 µM | TGI (HCT-116 colon): 2.32 µM and 3.31 µM | GI50 (K-562 leukemia): 0.347 µM and 0.372 µM | TGI (K-562 leukemia): 1.79 µM and 9.54 µM

O=C1N[C@H]2[C@H](O)[C@H](O)[C@@H](O)[C@H](O)[C@@H]2c2cc3c(c(O)c21)OCO3
GI50 (UACC-62 melanoma): 0.246 µM and 0.412 µM | GI50 (NCI-H226 lung): 0.273 µM and 0.365 µM | TGI (NCI-H226 lung): 1.59 µM and 0.195 µM | GI50 (SK-MEL-28 melanoma): 0.308 µM and 0.382 µM | GI50 (SR leukemia): 0.0248 µM | TGI (SR leukemia): 0.511 µM and 3.31 µM | GI50 (LOX IMVI melanoma): 0.147 µM and 0.196 µM | GI50 (IGROV1 ovarian): 0.349 µM and 0.757 µM | GI50 (SF-295 CNS): 0.346 µM and 0.495 µM | TGI (SF-295 CNS): 3.51 µM and 0.352 µM | GI50 (OVCAR-8 ovarian): 0.231 µM and 0.225 µM | TGI (OVCAR-8 ovarian): 1.89 µM and 0.195 µM | GI50 (HCT-116 colon): 0.129 µM and 0.253 µM | TGI (HCT-116 colon): 0.682 µM and 1.42 µM and 0.144 µM | GI50 (K-562 leukemia): 0.216 µM and 0.214 µM

CC1(C)N=C(N)N=C(N)N1c1ccc(Cl)c(Cl)c1
GI50 (UACC-62 melanoma): 0.612 µM | TGI (UACC-62 melanoma): > 100 µM | TGI (NCI-H226 lung): > 100 µM | GI50 (SK-MEL-28 melanoma): 11.7 µM | TGI (SK-MEL-28 melanoma): > 100 µM | GI50 (SR leukemia): 31.3 µM | TGI (SR leukemia): > 100 µM | GI50 (LOX IMVI melanoma): 0.0879 µM | TGI (LOX IMVI melanoma): > 100 µM | GI50 (IGROV1 ovarian): 0.356 µM | TGI (IGROV1 ovarian): > 100 µM | GI50 (SF-295 CNS): 0.304 µM | GI50 (OVCAR-8 ovarian): 0.202 µM | TGI (OVCAR-8 ovarian): > 100 µM | GI50 (HCT-116 colon): 0.0549 µM | TGI (HCT-116 colon): > 100 µM | GI50 (K-562 leukemia): 0.0636 µM | TGI (K-562 leukemia): > 100 µM

CCN(CC)CCC(=O)/C=C/c1ccc(C)cc1
TGI (UACC-62 melanoma): 30.9 µM | TGI (NCI-H226 lung): 31.9 µM | TGI (SK-MEL-28 melanoma): 28.1 µM | TGI (SR leukemia): 33.3 µM | TGI (LOX IMVI melanoma): 14.6 µM | TGI (IGROV1 ovarian): 30 µM | TGI (SF-295 CNS): 34.6 µM | TGI (OVCAR-8 ovarian): 32.4 µM | TGI (HCT-116 colon): 26.2 µM | TGI (K-562 leukemia): > 100 µM

Cc1ncc(-c2ccnc(Nc3ccc(S(C)(=O)=O)cc3)n2)n1C(C)C
GI50 (UACC-62 melanoma): 1.45 µM | TGI (UACC-62 melanoma): 3.64 µM | GI50 (NCI-H226 lung): 0.902 µM | TGI (NCI-H226 lung): > 8.47 µM | GI50 (SK-MEL-28 melanoma): 1.28 µM | TGI (SK-MEL-28 melanoma): > 5.69 µM | GI50 (SR leukemia): 0.222 µM | TGI (SR leukemia): 2.94 µM | GI50 (LOX IMVI melanoma): 0.537 µM | TGI (LOX IMVI melanoma): 9.94 µM | GI50 (IGROV1 ovarian): 0.758 µM | TGI (IGROV1 ovarian): > 7.91 µM | GI50 (SF-295 CNS): 1.67 µM | TGI (SF-295 CNS): 6.75 µM | GI50 (OVCAR-8 ovarian): 1.33 µM | TGI (OVCAR-8 ovarian): > 10 µM | GI50 (HCT-116 colon): 0.275 µM | TGI (HCT-116 colon): > 10 µM | GI50 (K-562 leukemia): 1.59 µM | TGI (K-562 leukemia): > 10 µM

CN1CCN(c2ccc(C(=O)Nc3cccc(C#Cc4cccc5[nH]nc(N)c45)c3)cc2C(F)(F)F)CC1
GI50 (UACC-62 melanoma): 0.665 µM | TGI (UACC-62 melanoma): 1.62 µM | GI50 (NCI-H226 lung): 2.12 µM | TGI (NCI-H226 lung): 6.94 µM | GI50 (SK-MEL-28 melanoma): 0.631 µM | TGI (SK-MEL-28 melanoma): 1.25 µM | GI50 (SR leukemia): 1.06 µM | TGI (SR leukemia): 5.34 µM | GI50 (LOX IMVI melanoma): 0.59 µM | TGI (LOX IMVI melanoma): 1.08 µM | GI50 (IGROV1 ovarian): 0.716 µM | TGI (IGROV1 ovarian): 1.92 µM | GI50 (SF-295 CNS): 0.654 µM | TGI (SF-295 CNS): 1.39 µM | GI50 (OVCAR-8 ovarian): 1.09 µM | TGI (OVCAR-8 ovarian): 4.77 µM | GI50 (HCT-116 colon): 0.525 µM | TGI (HCT-116 colon): 1.04 µM | GI50 (K-562 leukemia): 0.0235 µM | TGI (K-562 leukemia): 0.717 µM

Cc1cc(S(N)(=O)=O)c(S/C(=N\Nc2ccc([N+](=O)[O-])cc2)c2ccc3ccccc3c2)cc1Cl
GI50 (UACC-62 melanoma): 15.6 µM | TGI (UACC-62 melanoma): 28.9 µM | GI50 (NCI-H226 lung): 18.4 µM | TGI (NCI-H226 lung): 38.3 µM | GI50 (SK-MEL-28 melanoma): 35.1 µM | TGI (SK-MEL-28 melanoma): > 100 µM | GI50 (SR leukemia): 42.6 µM | TGI (SR leukemia): > 100 µM | GI50 (LOX IMVI melanoma): 20.3 µM | TGI (LOX IMVI melanoma): 40.9 µM | GI50 (IGROV1 ovarian): 54.3 µM | TGI (IGROV1 ovarian): > 100 µM | GI50 (SF-295 CNS): 20 µM | TGI (SF-295 CNS): 66.2 µM | GI50 (OVCAR-8 ovarian): 14 µM | TGI (OVCAR-8 ovarian): > 100 µM | GI50 (HCT-116 colon): 4.67 µM | TGI (HCT-116 colon): > 100 µM | GI50 (K-562 leukemia): 28 µM | TGI (K-562 leukemia): > 100 µM

O=Nc1c(O)c2ccccc2c2ccccc12
GI50 (UACC-62 melanoma): 0.99 µM | TGI (UACC-62 melanoma): 2.37 µM | GI50 (NCI-H226 lung): 2.03 µM | TGI (NCI-H226 lung): 3.83 µM | GI50 (SK-MEL-28 melanoma): 1.68 µM | TGI (SK-MEL-28 melanoma): 3.07 µM | GI50 (SR leukemia): 1.07 µM | TGI (SR leukemia): 64.2 µM | GI50 (LOX IMVI melanoma): 0.294 µM | TGI (LOX IMVI melanoma): 1.06 µM | GI50 (IGROV1 ovarian): 1.83 µM | TGI (IGROV1 ovarian): 3.51 µM | GI50 (SF-295 CNS): 1.64 µM | TGI (SF-295 CNS): 3.5 µM | GI50 (OVCAR-8 ovarian): 0.653 µM | TGI (OVCAR-8 ovarian): 3.88 µM | GI50 (HCT-116 colon): 0.371 µM | TGI (HCT-116 colon): 1.33 µM | GI50 (K-562 leukemia): 0.505 µM | TGI (K-562 leukemia): > 100 µM

C[C@@](O)(/C=C/[C@H]1CC=CC(=O)O1)[C@@H](C[C@@H](O)\C=C/C=C\C=C\CO)OP(=O)(O)O
GI50 (UACC-62 melanoma): 6.51 µM | TGI (UACC-62 melanoma): 28 µM and 11 µM | TGI (NCI-H226 lung): 18.7 µM | GI50 (SK-MEL-28 melanoma): 8.69 µM | TGI (SK-MEL-28 melanoma): 38.8 µM and 25.3 µM | TGI (SR leukemia): 41.6 µM | GI50 (LOX IMVI melanoma): 4.32 µM | TGI (LOX IMVI melanoma): 10.1 µM and 6.8 µM | TGI (IGROV1 ovarian): 15.4 µM | TGI (SF-295 CNS): 13.4 µM | GI50 (OVCAR-8 ovarian): 12.3 µM | TGI (OVCAR-8 ovarian): 90.7 µM and 86.5 µM | GI50 (HCT-116 colon): 4.1 µM | TGI (HCT-116 colon): 8.87 µM and 11 µM | GI50 (K-562 leukemia): 1.39 µM | TGI (K-562 leukemia): 363 µM and 84.6 µM

O=C(Nc1cccc(-n2cc(-c3ccncc3)c(-c3ccc(O)c(Cl)c3)n2)c1)c1ccc(Cl)c(Cl)c1
GI50 (UACC-62 melanoma): 10.8 µM | TGI (UACC-62 melanoma): 47.6 µM | GI50 (NCI-H226 lung): 8.06 µM | TGI (NCI-H226 lung): > 100 µM | GI50 (SK-MEL-28 melanoma): 3.45 µM | TGI (SK-MEL-28 melanoma): 19.4 µM | GI50 (SR leukemia): 3.57 µM | TGI (SR leukemia): > 100 µM | GI50 (LOX IMVI melanoma): 7.21 µM | TGI (LOX IMVI melanoma): > 100 µM | GI50 (IGROV1 ovarian): 25.5 µM | TGI (IGROV1 ovarian): > 100 µM | GI50 (SF-295 CNS): 5.94 µM | TGI (SF-295 CNS): 86.5 µM | GI50 (OVCAR-8 ovarian): 5.06 µM | TGI (OVCAR-8 ovarian): > 100 µM | GI50 (HCT-116 colon): 5.95 µM | TGI (HCT-116 colon): > 100 µM | GI50 (K-562 leukemia): 3.48 µM | TGI (K-562 leukemia): > 100 µM
